“And” between values parts separate entries of the source, which are not always exact repeats. Equal entries are not always repeated. Where two headings read alike, the source gives them in different places.
How the values were obtained:
human RORγt = target: T1, human RORγt (Homo sapiens, UniProt P51449); assay: Cell-based GAL4-RORγt luciferase reporter assay in HEK293T cells; conditions: for inhibition at 10 µM: HEK-293T
T1 construct: expressed in transfected cells; host or cells: HEK293T
T1 sequence (P51449 269-508 limits assumed): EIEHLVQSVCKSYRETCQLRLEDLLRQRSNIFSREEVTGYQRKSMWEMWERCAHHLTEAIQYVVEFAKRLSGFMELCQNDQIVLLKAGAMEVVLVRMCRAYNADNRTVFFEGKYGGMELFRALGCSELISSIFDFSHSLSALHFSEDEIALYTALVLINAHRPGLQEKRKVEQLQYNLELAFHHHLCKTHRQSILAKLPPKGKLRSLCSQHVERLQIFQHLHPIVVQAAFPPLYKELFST
Protocol: FIG. 7A is a graph showing the inhibitory rate of various drugs as predicted by an example deep learning network system. […] In total, 18 purchasable drugs for RORγt were tested using a cell-based luciferase reporter assay. In this assay, GAL4-RORγt, with fused human RORγt LBD and GAL4 DNA binding domain are co-transfected into HEK293T cells with a luciferase reporter gene harboring the GAL4 response element33.

DRD2 = DRD2 (Homo sapiens, UniProt P14416); conditions: published experimental data; cited from earlier work
Sequence of DRD2 (P14416 whole entry): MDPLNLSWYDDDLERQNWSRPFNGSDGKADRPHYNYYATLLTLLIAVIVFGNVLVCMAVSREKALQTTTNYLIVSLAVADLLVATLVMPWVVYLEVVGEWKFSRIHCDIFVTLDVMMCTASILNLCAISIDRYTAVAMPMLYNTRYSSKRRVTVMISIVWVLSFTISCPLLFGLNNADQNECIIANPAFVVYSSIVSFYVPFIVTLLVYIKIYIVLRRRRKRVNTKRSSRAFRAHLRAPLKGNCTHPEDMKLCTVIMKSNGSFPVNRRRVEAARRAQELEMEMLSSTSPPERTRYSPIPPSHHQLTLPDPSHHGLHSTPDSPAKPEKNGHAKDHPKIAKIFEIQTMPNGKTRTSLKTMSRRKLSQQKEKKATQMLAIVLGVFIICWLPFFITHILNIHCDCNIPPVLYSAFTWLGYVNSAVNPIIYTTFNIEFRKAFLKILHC

ADRA2A = target: T2, ADRA2A (Homo sapiens, UniProt P08913); conditions: published experimental data; cited from earlier work
T2 sequence (P08913 1-465): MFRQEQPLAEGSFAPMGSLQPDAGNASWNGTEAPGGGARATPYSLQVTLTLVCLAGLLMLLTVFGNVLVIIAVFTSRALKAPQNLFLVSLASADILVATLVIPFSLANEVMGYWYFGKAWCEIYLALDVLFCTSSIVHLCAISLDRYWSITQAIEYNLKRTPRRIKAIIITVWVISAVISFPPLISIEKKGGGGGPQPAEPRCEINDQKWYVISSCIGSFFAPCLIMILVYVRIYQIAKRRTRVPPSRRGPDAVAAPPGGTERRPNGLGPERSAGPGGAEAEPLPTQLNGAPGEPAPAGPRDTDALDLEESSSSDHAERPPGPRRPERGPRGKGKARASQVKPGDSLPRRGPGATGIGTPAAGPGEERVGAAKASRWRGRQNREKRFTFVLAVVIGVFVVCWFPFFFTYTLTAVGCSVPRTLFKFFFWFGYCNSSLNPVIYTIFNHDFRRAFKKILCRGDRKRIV

EAE mice = assay: Experimental autoimmune encephalomyelitis (EAE) model; assay type: in vivo, C57BL/6 mice
Protocol: FIG. 8A is a schedule of the application of an experimental autoimmune encephalomyelitis (EAE) model. EAE is a most frequently used experimental animal model for human multiple sclerosis. To investigate the therapeutic potential of topotecan in multiple sclerosis, EAE was induced in C57BL/6 mice by active immunization with […] in complete Freund's adjuvant (CFA) followed by pertussis toxin administration, according to the application schedule shown in FIG. 8A. Topotecan (10 mg/kg) or vehicle (sterile water, control) was administered intraperitoneally every four days during the course of EAE. Disease severity was assessed and graded using a five-point scoring system for 15 days.
During the course of EAE, changes in body weight also reflect disease severity. FIG. 8C is a graph showing weight loss in miss after the application of topotecan during EAE.
Multiple sclerosis is a chronic demyelinating disease accompanied by blood-brain barrier disruption. Near-infrared in vivo imaging is further utilized to evaluate the demyelination and blood-brain barrier leakage in EAE mice. A near-infrared fluorescent dye, 3, 3′-diethylthiatricarbocyanine iodide (DBT), easily enter into the brain and selectively binds to myelin fibers45. […] Cy5.5-BSA, a fluorescent BSA conjugate with bright near infrared fluorescence, penetrates the brain when the blood-brain barrier is disrupted.
T helper 17 (Th17) cells are a highly pro-inflammatory lineage of T helper cells defined by their production of interleukin 17 (IL-17)46. RORγt is necessary and sufficient for cytokine IL-17 expression in mouse and human Th17 cells46. Given the inhibitory effects of topotecan against RORγt, it was investigated whether topotecan affects IL-17 expression in EAE mice.

[1] = Pharmacokinetics after intraperitoneal injection in mice; assay type: in vivo
Source text: Where Cmax is the peak concentration, Tmax is the time between administration and reaching Cmax, and t1/2 is the elimination half-life.

[2] = target: retinoid X receptor α LBD (RXRα-LBD) (Homo sapiens, UniProt P19793); assay: HPLC direct interaction with RXRα-LBD; assay type: binding
Sequence of retinoid X receptor α LBD (RXRα-LBD) (P19793 227-458 limits assumed, species assumed): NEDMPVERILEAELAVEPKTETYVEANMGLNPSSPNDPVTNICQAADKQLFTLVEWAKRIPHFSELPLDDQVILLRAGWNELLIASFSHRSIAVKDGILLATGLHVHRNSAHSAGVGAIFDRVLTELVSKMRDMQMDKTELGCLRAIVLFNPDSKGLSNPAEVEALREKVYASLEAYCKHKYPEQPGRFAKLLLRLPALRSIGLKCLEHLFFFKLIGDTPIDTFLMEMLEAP

firefly luciferase = firefly luciferase (Photinus pyralis, UniProt P08659); assay: Control firefly luciferase activity experiment; assay type: cell-based; conditions: control experiment for promiscuous effects on luciferase
Sequence of firefly luciferase (P08659 whole entry): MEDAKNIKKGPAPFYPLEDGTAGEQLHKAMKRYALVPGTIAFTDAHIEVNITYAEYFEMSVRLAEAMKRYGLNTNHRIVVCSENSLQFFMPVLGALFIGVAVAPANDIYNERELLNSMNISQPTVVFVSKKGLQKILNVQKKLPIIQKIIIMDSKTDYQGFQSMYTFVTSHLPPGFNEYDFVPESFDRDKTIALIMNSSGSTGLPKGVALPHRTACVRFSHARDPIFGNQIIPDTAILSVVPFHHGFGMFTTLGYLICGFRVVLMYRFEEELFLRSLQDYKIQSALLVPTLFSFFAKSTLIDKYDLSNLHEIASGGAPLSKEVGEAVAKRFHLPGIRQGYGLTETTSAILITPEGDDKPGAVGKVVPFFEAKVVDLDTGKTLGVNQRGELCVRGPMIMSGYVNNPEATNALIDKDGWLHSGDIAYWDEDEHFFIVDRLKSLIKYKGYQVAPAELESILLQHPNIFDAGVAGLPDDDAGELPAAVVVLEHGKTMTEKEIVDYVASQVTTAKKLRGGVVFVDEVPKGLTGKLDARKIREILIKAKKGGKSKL
Source text: (§1) FIG. 7B is a graph showing the inhibitory rate as a function of topotecan concentration. […] FIG. 7C is a graph showing the effect of topotecan on fluorescence intensity. […] FIG. 7D is a graph showing the effect of topotecan on cell viability.

RORγt-LBD [3] = target: T3, RORγt-LBD (Homo sapiens, UniProt P51449); assay: HPLC direct interaction with RORγt-LBD; assay type: binding
T3 sequence (P51449 269-508 limits assumed): T1 sequence (P51449 269-508 limits assumed)

HEK293T cells = assay: HEK293T cell viability; assay type: cell-based, human; conditions: same concentration range as in the reporter assay
Source text: as §1

RORγt-LBD [4] = target: T3, RORγt-LBD; assay: HTRF coactivator (SRC-1 peptide) recruitment assay; assay type: biochemical; conditions: read-out: IC50 (disruption of RORγt-LBD interaction with SRC-1 cofactor peptide)
Source text: Nuclear receptors execute their versatile transcriptional functions by recruiting positive and negative regulatory proteins, known as coactivators or corepressors, respectively. Agonists promote interactions between nuclear receptors and coactivators, while antagonists either inhibit coactivator binding or facilitate corepressor recruitment. The functional change of the binding of topotecan on RORγt is investigated by utilizing a HTRF assay to evaluate ligand-induced coactivator recruitment to RORγt.
FIG. 7E is another graph showing the inhibitory rate of topotecan as a function of concentration as predicted by an example deep learning network system.

RORγt = target: T4, RORγt (Mus musculus, UniProt P51450); assay: Target occupancy in mouse brain with tracer T0901317; assay type: in vivo, mice
T4 construct: Concentration of T0901317 in mice brain samples; from tissue; host or cells: mouse brain
T4 sequence (P51450 1-495 isoform P51450-2): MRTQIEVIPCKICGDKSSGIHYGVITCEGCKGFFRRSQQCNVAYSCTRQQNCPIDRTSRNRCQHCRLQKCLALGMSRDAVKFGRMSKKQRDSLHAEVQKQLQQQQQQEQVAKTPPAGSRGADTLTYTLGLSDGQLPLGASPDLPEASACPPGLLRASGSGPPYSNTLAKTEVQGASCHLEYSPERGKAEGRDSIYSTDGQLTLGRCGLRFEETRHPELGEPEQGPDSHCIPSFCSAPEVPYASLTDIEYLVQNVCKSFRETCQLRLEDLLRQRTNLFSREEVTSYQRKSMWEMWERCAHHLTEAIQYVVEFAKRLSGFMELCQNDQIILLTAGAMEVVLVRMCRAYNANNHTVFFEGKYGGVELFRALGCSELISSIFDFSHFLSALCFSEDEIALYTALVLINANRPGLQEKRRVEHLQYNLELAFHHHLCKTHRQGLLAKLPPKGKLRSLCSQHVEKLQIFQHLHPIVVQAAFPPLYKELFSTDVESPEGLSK
Protocol: In the data presented in Table 2, T0901317, an orthosteric ligand of RORγt, was used as the tracer for assessing target occupancy of TPT. A Student's t-test was performed to obtain the p-value, and sterile water was used as vehicle.

RORγt-LBD [5] = target: T3, RORγt-LBD; assay: Circular dichroism (CD) spectrum of RORγt; assay type: binding
Source text: FIG. 7F is a graph illustrating how topotecan alters the variation of circular dichroism (CD) spectrum of RORγt. CD is a powerful method for probing protein and ligand interactions in solution. […] FIG. 7G is a graph plotting CD Signal as a function of wavelength. […] FIG. 7H is an illustration showing how topotecan interacts with multiple important residues on human RORγt. The binding mode of topotecan to human RORγt is examined using molecular docking. […] Put together, by combining information gleaned from the deep learning network model and experimental assays, topotecan is identified as a novel, direct inhibitor of human RORγt.

[6] = test system: normal cell lines or other mice organs; assay: Toxicity on normal cell lines or mice organs
Source text: Accordingly, as predicted by the systems and methods presented herein, topotecan is a good drug candidate in possible treatment of MS.

[7] = at a concentration of 10 μM, GAL4-RORγt HEK293T luciferase reporter, read-out: inhibitory rate
[8] = read-out: inhibitory rate, at a concentration of 10 μM, GAL4-RORγt HEK293T luciferase reporter
[9] = 10 mg/kg intraperitoneally every four days
[10] = mouse, ip, brain, intraperitoneal injection in mice
[11] = mouse, ip, plasma, intraperitoneal injection in mice

In the case of `CC(C)(Oc1ccc(CCNC(=O)c2ccc(Cl)cc2)cc1)C(=O)O` [bezafibrate], the inhibition at 10 µM (human RORγt; [7]) is reported as > 30%.

For `CC(CCc1ccc(O)cc1)NCCc1ccc(O)c(O)c1` (stereo not drawn) [dobutamine], the IC50 (DRD2) is given as 8.22 µM and the IC50 (ADRA2A) is given as 10.8 µM.

In the case of `C#C[C@]1(O)CC[C@H]2[C@@H]3CCC4=CC(=O)CC[C@@H]4[C@H]3CC[C@@]21C` [norethindrone], the inhibition at 10 µM (human RORγt; [8]) is reported as > 30%.

With `CN(CCOc1ccc(CC2SC(=O)NC2=O)cc1)c1ccccn1` (stereo not drawn) [rosiglitazone] the inhibition at 10 µM (human RORγt; [7]) was > 30%.

In the case of `CC(=O)S[C@@H]1CC2=CC(=O)CC[C@]2(C)[C@H]2CC[C@@]3(C)[C@@H](CC[C@@]34CCC(=O)O4)[C@H]12` [spironolactone], the inhibition at 10 µM (human RORγt; [8]) is reported as > 30%.

In the case of `CCOC(=O)c1ccc(C#Cc2ccc3c(c2)C(C)(C)CCS3)nc1` [tazarotene], the inhibition at 10 µM (human RORγt; [7]) is reported as > 30%.

For `CC[C@@]1(O)C(=O)OCc2c1cc1n(c2=O)Cc2cc3c(CN(C)C)c(O)ccc3nc2-1` [topotecan], the “EAE induced body weight loss” value (EAE mice; [9]) was “more tolerable to EAE induced body weight loss than vehicle-treated mice”, the “onset of clinical symptoms” value (EAE mice; [9]) was “significantly delay in the onset of clinical symptoms” and the clinical score (EAE mice; 10 mg/kg intraperitoneally every four days, five-point scoring) was “observable reduction of clinical score”. For the same compound, the “IL-17 production in brain and spinal cords” value (EAE mice; ELISA) was “significantly reduces IL-17 production”, the “demyelination in white matter (LFB staining)” value (EAE mice; day 20 after immunization) was “demyelination is significantly reversed” and the “infiltration of leukocytes in spinal cord (H&E staining)” value (EAE mice; day 20 after immunization) was “infiltration is largely reduced”. For the same compound, the “DBT near-infrared fluorescence (myelin imaging)” value (EAE mice; near-infrared in vivo imaging) was “reverses fluorescence”, the “accumulation of Cy5.5-BSA fluorescent probe in the brain (blood-brain barrier leakage)” value (EAE mice; near-infrared in vivo imaging) was “higher accumulation of the fluorescent probe in the brain of vehicle treated mice as compared to the topotecan treatment group” and the IC50 (human RORγt; GAL4-RORγt expressing HEK293T cells, read-out: IC50 (antagonistic activity)) was 0.43 ± 0.02 µM. For the same compound, the inhibitory rate (human RORγt; at a concentration of 10 μM, GAL4-RORγt HEK293T luciferase reporter, 10 µM) was 71.0%, the brain penetration ([1]; mouse models) was “ideal brain penetration” and the AUC(0-inf) [1, 10] was 173 ng·h/mL. The AUC(0-t) [1, 10] was 170 ng·h/mL, the Cmax [1, 10] was 121 ng/mL and the Tmax [1, 10] was 30 min. The AUC(0-inf) [1, 11] was 3310 ng·h/mL, the AUC(0-t) [1, 11] was 3280 ng·h/mL and the Cmax [1, 11] was 3250 ng/mL. For the same compound, the Tmax [1, 11] was 30 min, the half-life [1, 11] was 289 min and the “direct interaction by HPLC” value [2] was “not with retinoid X receptor α LBD”. The “suppression of control firefly luciferase activity” value (firefly luciferase) was “no suppression is observed”, the “direct interaction by HPLC” value (RORγt-LBD [3]) was “directly interacts with RORγt-LBD” and the “effect on HEK293T cell viability” value (HEK293T cells) was “minor effect”. For the same compound, the IC50 (RORγt-LBD [4]) was 6.65 ± 0.02 µM, the “Concentration of T0901317 in mice brain samples” value (RORγt; individual mice 1-5, TPT-treated, tracer T0901317, listed as TPT) was 2788.48 ng/g and 4396.96 ng/g and 3365.97 ng/g and 3736.16 ng/g and 3212.96 ng/g and the “Concentration of T0901317 in mice brain samples, Mean” value (RORγt; mean of 5 TPT-treated mice, vehicle mean 4426.55, P-value 0.0029) was 3500.11 ng/g. For the same compound, the “change of CD spectrum of RORγt (direct binding)” value (RORγt-LBD [5]) was “alters the variation of CD spectrum of RORγt” and the “toxicity on normal cell lines or other mice organs” value [6] was “very low toxicity”.

Source: US20210142173A1, “NETWORK-BASED DEEP LEARNING TECHNOLOGY FOR TARGET IDENTIFICATION AND DRUG REPURPOSING” (THE CLEVELAND CLINIC FOUNDATION, priority 2019, published 2021)
